These are literature values, as cited in US6660287B1, “Prevention of spoilage of produce using acidified expanded amorphous aluminum silicate impregnated with chlorite” (Bio-Cide International, Inc., priority 1999, dated 2003).

The series deals with mice.

As to `OCl` [hypochlorite], the mutagenic potential entry (mouse, in vivo, po) is “weak positive effect”.
Take `[O][Cl+][O-]` [chlorine dioxide]: the “chromosomal aberrations or increased numbers of micronuclei in the bone marrow” value (subchronic and acute oral administration, mice (Meier et al.)) is given as “failed to induce any chromosomal aberrations or increased numbers of micronuclei”.
